These results are taken from publication PMC12705226, “Lotusin A: a novel pyrrole terpenoid hydrid from lotus roots (Nelumbo nucifera Gaertn.)” (RSC Advances, 2025).

Where two headings read alike, the source gives them in different places.

Broadly, the IC50 is the midpoint of a concentration-inhibition curve.

One test concerns the target α-glucosidase (Saccharomyces cerevisiae, UniProt P38158). Put plainly: biochemical. The procedure: The α-glucosidase inhibitory assay was performed using a somewhat modified method of Kurihara et al.[44] For every reaction, […] p-nitrophenyl-α-D-glucopyranoside, 50 mL of 0.1 U mL^−1, α-glucosidase in 0.01 M phosphate buffer (pH 7.0), […] of sample solution (various concentrations of compound 1 with 5, 10, 25, 50 µM) were mixed. The mixture was kept at 37 °C for 30 minutes and added with 0.1 M Na2CO3. Mixture after reaction will be measured at a wavelength of 401 nm. The IC50 values represented the inhibitor concentration that suppressed 50% of enzyme activity. […] All experiments were performed in triplicate. The percentage inhibition was calculated using the following equation: α-glucosidase inhibition (%) = (Ac − At)/Ac × 100, where Ac is the absorbance of control (α-glucosidase, without sample) and At is the absorbance of test samples (α-glucosidase, with sample). The experimental results were processed using the GraphPad Prism 8 software.

A further test concerns Salmonella typhimurium. Briefly: MIC measurement (broth microdilution). The format is cell-based. To be noted: Gram-negative; screening at 10.0 µM. The procedure:
(§1) The MIC of the isolated compounds was determined against Staphylococcus aureus, Bacillus subtilis, Micrococcus luteus, Salmonella typhimurium, Escherichia coli, and Klebsiella pneumonia. Bacterial strains were cultured on TSB (Tryptic Soy Broth) agar plates and incubated at 37 °C for 24 h. A single colony was transferred to Muller–Hinton broth (MHB), continuously incubated and harvested after 24 h at 37 °C and centrifuged at 250 rpm. The suspensions were adjusted to 0.5 McFarland standard, diluted to achieve a final concentration of approximately 5 × 10^5 CFU mL^−1 and added to each well. All compounds were dissolved in DMSO and dispensed into 96-well plates at a starting concentration of 10 µM. Kanamycin was used as a positive control.
Background: Dilution methods test growth across graded concentrations, often in twofold steps.

In another test the test system is Bacillus subtilis. Put plainly: MIC measurement (broth microdilution). To be noted: Gram-positive; screening at 10.0 µM. Type of test: cell-based. The protocol: as §1, with “The antibacterial activities of compounds 1–6 were evaluated in 96-well plates using a modified broth microdilution method previously reported by our group. The MIC” for “The MIC”
In another test the test system is Klebsiella pneumoniae. Put plainly: MIC measurement (broth microdilution). Type of test: cell-based. The note with it: Gram-negative; screening at 10.0 µM. The procedure:
as §1, with “The antibacterial activities of compounds 1–6 were evaluated in 96-well plates using a modified broth microdilution method previously reported by our group. The MIC” for “The MIC”

In the next test the test system is Escherichia coli. Briefly: MIC measurement (broth microdilution). Type of test: cell-based. The note with it: Gram-negative; screening at 10.0 µM. The protocol: as §1, with “The antibacterial activities of compounds 1–6 were evaluated in 96-well plates using a modified broth microdilution method previously reported by our group. The MIC” for “The MIC”
The next test relates to Micrococcus luteus. Put plainly: MIC measurement (broth microdilution). The format is cell-based. To be noted: Gram-positive; screening at 10.0 µM. The procedure: as §1, with “The antibacterial activities of compounds 1–6 were evaluated in 96-well plates using a modified broth microdilution method previously reported by our group. The MIC” for “The MIC”
Another test concerns Staphylococcus aureus. Briefly: MIC measurement (broth microdilution). The format is cell-based. To be noted: Gram-positive; screening at 10.0 µM. The procedure: as §1, with “The antibacterial activities of compounds 1–6 were evaluated in 96-well plates using a modified broth microdilution method previously reported by our group. The MIC” for “The MIC”
The subject of another test is RAW264.7 cells. Briefly: Determination of NO production in LPS-treated RAW264.7 cells (Griess reagent). The format is cell-based. To be noted: for IC50: Mus musculus. The procedure:
The production of nitric oxide (NO) was quantified by measuring the NO levels in cell culture supernatants using a previously method. In brief, RAW264.7 cells (ATCC, Rockville, MD, USA, 1 × 10^5 cells per well) were treated with 1 µg mL^−1 of LPS for 24 h, with and without the test compounds (1–100 µM). After incubation, the supernatant (100 µL) was mixed with 100 µL of Griess reagent. The viability of the remaining cells was assessed using an MTT-based colorimetric assay as described above.
(The Griess reaction detects nitrite, a stable product of nitric oxide.)

The subject of another test is six bacterial strains. Put plainly: Antibacterial preliminary screening, text statements on all strains together. The format is cell-based. The note with it: concentration of 10 µM. The procedure:
It is based on combined biological activities of reported pyrrole sesquiterpenes and available screening models in our lab, including those regarding anti-inflammatory activities, antibacterial activities, and inhibition of α-glucosidase. […] To further evaluate the biological potential of compounds 1–6, we examined their antibacterial activities through preliminary screening at a concentration of 10 µM. The assays were conducted against three Gram-positive bacterial strains (Staphylococcus aureus, Bacillus subtilis, and Micrococcus luteus) and three Gram-negative strains (Salmonella typhimurium, Escherichia coli, and Klebsiella pneumoniae). This comparative screening aimed to determine whether any of these compounds could inhibit bacterial growth under identical conditions by conducting further experiments.
The antibacterial activities of compounds 1–6 were evaluated in 96-well plates using a modified broth microdilution method previously reported by our group. The MIC of the isolated compounds was determined against Staphylococcus aureus, Bacillus subtilis, Micrococcus luteus, Salmonella typhimurium, Escherichia coli, and Klebsiella pneumonia. Bacterial strains were cultured on TSB (Tryptic Soy Broth) agar plates and incubated at 37 °C for 24 h. […]

Where [1] appears, read: RAW264.7, 24 h, read-out: NO production (IC50, µM).

α-glucosidase, sequence (P38158 whole entry): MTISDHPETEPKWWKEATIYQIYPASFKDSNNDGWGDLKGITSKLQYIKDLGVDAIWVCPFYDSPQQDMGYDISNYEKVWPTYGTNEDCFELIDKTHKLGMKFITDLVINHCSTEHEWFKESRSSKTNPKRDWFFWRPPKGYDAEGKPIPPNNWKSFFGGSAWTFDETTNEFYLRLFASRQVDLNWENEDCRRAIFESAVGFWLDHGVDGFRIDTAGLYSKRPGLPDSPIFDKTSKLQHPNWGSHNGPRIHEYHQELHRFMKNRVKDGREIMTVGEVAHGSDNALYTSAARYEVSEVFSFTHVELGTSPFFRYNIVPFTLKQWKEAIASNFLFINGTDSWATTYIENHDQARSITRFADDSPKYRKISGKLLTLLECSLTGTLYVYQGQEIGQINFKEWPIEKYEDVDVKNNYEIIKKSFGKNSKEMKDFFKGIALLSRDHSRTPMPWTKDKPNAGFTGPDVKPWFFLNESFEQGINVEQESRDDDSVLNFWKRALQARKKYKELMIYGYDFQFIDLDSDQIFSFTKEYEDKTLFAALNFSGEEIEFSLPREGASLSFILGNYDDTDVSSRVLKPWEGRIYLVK

Consider `CC[C@H](CC[C@@H](C)[C@H]1CC[C@H]2[C@@H]3CCC4=CC(=O)CC[C@]4(C)[C@H]3CC[C@]12C)C(C)C` (stereo in doubt) [Compound 3, stigmast-4-en-3-one], for which, on α-glucosidase, the IC50 is > 50 µM.
Consider `O=c1cc(-c2ccc(O)cc2O)oc2cc(O)cc(O)c12` [Compound 6, norartocarpetin], for which the IC50 on α-glucosidase (pH 7.0, 37 °C, 30 minutes, class symbol, read-out: α-Glucosidase (IC50)) was > 50 µM.
For `COc1cc(-c2oc3cc(O)cc(O)c3c(=O)c2O)ccc1O` [Compound 5, isorhamnetin], the IC50 at α-glucosidase was > 50 µM.
Regarding `NC[C@H]1O[C@H](O[C@H]2[C@H](O)[C@@H](O[C@H]3O[C@H](CO)[C@@H](O)[C@H](N)[C@H]3O)[C@H](N)C[C@@H]2N)[C@H](O)[C@@H](O)[C@@H]1O` [Kanamycin], the “MIC (10.0 µM) Salmonella typhimurium” value against Salmonella typhimurium is given as “A”. Besides, the “MIC (10.0 µM) Bacillus subtilis” value with Bacillus subtilis is “A”. Besides, in the test on Klebsiella pneumoniae, the “MIC (10.0 µM) Klebsiella pneumoniae” value is on record as “A”. Also, in the test on Escherichia coli, the “MIC (10.0 µM) Escherichia coli” value is “A”. In addition, the “MIC (10.0 µM) Micrococcus luteus” value in the test with Micrococcus luteus was “A”. Also, in the test on Staphylococcus aureus, the “MIC (10.0 µM) Staphylococcus aureus” value was “A”.
In the case of `CC(C)CCCC(C)C1CCC2C3CCC4CC(O)CCC4(C)C3CCC12C` (centres unmarked) [Compound 2, cholestanol], the IC50 is > 50 µM against α-glucosidase and > 100 µM in the test with RAW264.7 cells (setting [1]). Besides, the “NO production (IC50, µM)” value in the test with RAW264.7 cells (RAW264.7 cells, 1 µg mL^−1 LPS, 24 h) was “did not show any activity”.
Take `O=c1c(O)c(-c2ccc(O)c(O)c2)oc2cc(O)cc(O)c12` [Compound 4, quercetin]: the IC50 against α-glucosidase is > 50 µM.
With `CC1=C(O)C(=O)C=C2C1=CC=C1[C@@]2(C)CC[C@@]2(C)[C@@H]3C[C@](C)(C(=O)O)CC[C@]3(C)CC[C@]12C` [Celastrol, reference compound], in the test with RAW264.7 cells (RAW264.7 cells, 1 µg mL^−1 LPS, 24 h, read-out: NO production (IC50)), the IC50 is 1.2 µM.
Turning to `CO[C@@H](CC(=O)c1ccc[nH]1)C(N)=O` [Compound 1, lotusin A], the IC50 was found to be 18.2 ± 0.17 µM on α-glucosidase (pH 7.0, 37 °C, 30 minutes, read-out: α-Glucosidase (IC50)) and 21.5 ± 0.3 µM in the test on RAW264.7 cells (setting [1]). For the same molecule, in the test on six bacterial strains, the “inhibition of microbial growth” value is listed as “no inhibition”.
